Measured values taken from patent publication US20220202783A1, “Use Of ADAM9 Inhibitor As Immunomodulator” (China Medical University, priority 2019, published 2022).

What was measured:
[1] = tested on: human pancreatic cancer cells PANC-1; assay: cytokine RNA expression by RT-qPCR, PANC-1; assay type: cell-based; conditions: 12.5 μM, 24 hours
Method: (§1) We further analyzed whether the treatment of the ADAM9 inhibitor can stimulate tumor cells to secrete cytokines to activate the anti-tumor immunity of the ADAM9 inhibitor. In the experiment, human colon cancer cells SW620 and human pancreatic cancer cells PANC-1 were treated with 12.5 μM of the compound SW1, and human esophageal cancer cells C[…] were treated with 5 μM of the compound SW1. After 24 hours, the cells were collected and the RNA expression levels of CXCL10, CXCL11, CXC3CL1 and IFNB were detected by RT-qPCR. CXCL10, CXCL11 and […] are cytokines that promote the immune response of CD8^+ T cells, and IFNB is a cytokine with anti-cancer effects. Please refer to FIGS. 10A, 10B and 10C, which show the analysis results of the ADAM9 inhibitor stimulated tumor cells to secrete cytokines.

Bm7 lung cancer cells = assay: tumor sphere formation; assay type: cell-based; conditions: 25 μM, 12 hours
Method: In the experiment, the Bm7 lung cancer cells were treated with 25 μM of the compound SW1 or the compound SW2 for 12 hours, and the number of tumor spheres formed was determined. Please refer to FIG. 2H, where mock represents Bm7 lung cancer cells without treatment.

[2] = cytotoxicity assay in HNOF cells; assay type: cell-based; conditions: human, HNOF cells
[3] = tested on: 4T1-luc breast cancer cells; assay: syngeneic orthotopic breast tumor animal model, immune cell infiltration; assay type: in vivo, BALB/c mice; conditions: 10 mg/kg subcutaneous
Source text: Please further refer to FIG. 7B, which is a flow chart of the ADAM9 inhibitor used in the treatment of a syngeneic orthotopic breast tumor animal model. In the experiment, 4T1-luc breast cancer cells (5×10^4) were transplanted into the breast fat pads of BALB/c mice to establish the syngeneic orthotopic breast tumor animal model. The IVIS imaging system is used for detection, and the tumor size is represented by the luminous flux of the IVIS image. After tumor images were detected on Day 15, the ADAM9 inhibitor (the compound SW1, 10 mg/kg) was pretreated by subcutaneous injection on Day 16, Day 18, and Day 20. After the tumor was surgically removed on Day 21, the ADAM9 inhibitor (the compound SW1, 10 mg/kg) was continuously treated on Day 23, Day 25, Day 27, Day 29 and Day 31. The surgically resected syngeneic orthotopic breast tumor animal model tumors were stained by immunohistochemistry. In the experiment, a control group was injected with DMSO as a control for the treatment of the ADAM9 inhibitor. Please further refer to FIGS. 8A and 8B, which show the analysis results of the effect of the ADAM9 inhibitor on immune cell infiltration.

TC1-WT lung cancer cells [4] = assay: subcutaneous lung tumor mouse model; assay type: in vivo, C57BL/6 mice; conditions: 10 mg/kg subcutaneous injection once a day, Day 15 to Day 24, vs DMSO control
Method: In order to further evaluate whether the treatment of ADAM9 inhibitors will give the same results as the ADAM9 gene knockout, TC1-WT lung cancer cells were injected subcutaneously into C57BL/6 mice with normal immunity to establish a subcutaneous lung tumor mouse model, and the ADAM9 inhibitor (the compound SW1, 10 mg/kg) was treated by subcutaneous injection. From Day 15 to Day 24, the compound SW1 was injected once a day for […]. The tumor volume was observed on Day 12, Day 20 and Day 27, respectively. […] The control group was injected with DMSO as a control for the treatment of the ADAM9 inhibitor.

[5] = tested on: human colon cancer cells SW620; assay: cytokine RNA expression by RT-qPCR, SW620; assay type: cell-based; conditions: 12.5 μM, 24 hours
Method: as §1

TC1-WT lung cancer cells [6] = assay: Annexin V and PI staining for cell apoptosis; assay type: cell-based; conditions: 24 hours, compared with TC1-ADAM9 KO lung cancer cells
Method: In the experiment, TC1-WT lung cancer cells and TC1-ADAM9 KO lung cancer cells were further treated with the compound SW1 or the compound SW2 for 24 hours, and then stained with Annexin V and PI to detect cell apoptosis. Please refer to FIG. 2F, where the percentage of Annexin V+ cells (apoptotic cells) is the statistical result from three independent experiments, with mean±SD.

[7] = tested on: lung cancer cells (Bm7brmx2); assay: cytotoxicity assay in Bm7brmx2 cells; assay type: cell-based; design: key to effect of inhibiting tumor cell growth: “+” represents that the compound has the effect of inhibiting tumor cell growth
In short: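 Potency expressed as IC50, obtained by cytotoxicity assay after compound treatment of the cells.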

leukocytes = assay: anoikis in anchorage-free culture, leukocytes; assay type: cell-based; conditions: Leukocyte, read-out: IC50 value for anoikis (anchorage-free induced apoptosis)
Method: To ensure the compound SW1 and the compound SW2 in blocking anoikis-resistance of cancer cells, the IC50 value (unit is μM) of the compound SW1 and the compound SW2 for anoikis (anchorage-free induced apoptosis) in lung cancer brain metastatic cell line-Bm7brmx2, breast cancer brain metastatic cell line-MDA-231 brm and leukocytes in anchorage-free culture conditions were determined.

[8] = tested on: control Bm7 lung cancer cells; assay: colony-forming assay, Bm7; assay type: cell-based; conditions: 20 μM, control Bm7 lung cancer cells (shGFP)
Method: To further test the planting efficiency of tumor cells treated with the compound SW1 and the compound SW2, in the experiment, control Bm7 lung cancer cells (treated with shGFP) and ADAM9 KO Bm7 lung cancer cells (treated with shADAM9) were treated with 20 μM of the compound SW1 or the compound SW2 respectively, and TC1-wild-type (WT) lung cancer cells and TC1-ADAM9 KO lung cancer cells were treated with 10 μM of the compound SW1 or the compound SW2 respectively. Then colony-forming assay was used to confirm the planting efficiency of each test group. Please refer to FIGS. 2D and 2E, wherein mock represents the tumor cell lines without treatment of the compound SW1 or the compound SW2. Representative images of colony-forming assay are shown at the bottom, and data are means±SD of 6 separate wells.

[9] = tested on: human esophageal cancer cells CE146T; assay: cytokine RNA expression by RT-qPCR, CE146T; assay type: cell-based; conditions: 5 μM, 24 hours
Method: as §1

MiaPaCa = assay: cytotoxicity on pancreatic cancer cells, MiaPaCa; assay type: cell-based; conditions: Homo sapiens, MIA PaCa-2
Method: In addition, the IC50 values (unit is μM) of the compound SW1 and the compound SW2 on pancreatic cancer cells were measured in the experiment.

| Structure (SMILES) | RNA expression levels of CXCL10, CXCL11, CXC3CL1 and IFNB [1] | number of tumor spheres formed (Bm7 lung cancer cells) | IC50 [2] | number of infiltrating neutrophils ([3]; 4T1 primary breast tumors and lung metastatic breast tumors) | number of infiltrating T cells ([3]; primary 4T1 breast tumors and lung metastatic breast tumors) | tumor growth (tumor volume) (TC1-WT lung cancer cells [4]) | RNA expression levels of CXCL10, CXCL11, CXC3CL1 and IFNB [5] | cell apoptosis (Annexin V+ cells) (TC1-WT lung cancer cells [6]) | IC50 [7] | effect of inhibiting tumor cell growth [7] | IC50 (leukocytes) | planting efficiency, colony-forming assay [8] | RNA expression levels of CXCL10, CXCL11, CXC3CL1 and IFNB [9] | IC50 (MiaPaCa) |
| --- | --- | --- | --- | --- | --- | --- | --- | --- | --- | --- | --- | --- | --- | --- |
| O=C1c2ccccc2C(=O)N1CCc1csc(Nc2nc(CCN3C(=O)c4ccccc4C3=O)cs2)n1 [SW1] | increase the expressions of CXCL10, CXCL11, CXC3CL1 and IFNB | greatly reduce the number of tumor spheres | 97.8 µM | greatly reduced | increased | reduces tumor growth | increase the expressions of CXCL10, CXCL11, CXC3CL1 and IFNB | induce cell apoptosis | 71.6 µM | + | > 200 µM | greatly reduce the planting efficiency | increase the expressions of CXCL10, CXCL11, CXC3CL1 and IFNB |  |
| O=C(Nc1nc(CCN2C(=O)c3ccccc3C2=O)cs1)c1cc2ccccc2s1 [SW2] |  | greatly reduce the number of tumor spheres | 61.9 µM |  |  |  |  | induce cell apoptosis | 52.7 µM | + | 76 µM | greatly reduce the planting efficiency |  | 8.5 µM |
